Earlier results as cited in PMC9587990, “Molecular basis for isoform-selective inhibition of presenilin-1 by MRK-560” (Nature Communications, 2022).

System: PS1-complex over PS2
Conditions: cited from earlier work

| SMILES | reported isoform selectivity |
| --- | --- |
| C[C@H](c1ccc(F)cc1CCCC(=O)O)N(c1cc(F)ccc1F)S(=O)(=O)c1ccc(Cl)cc1 [BMS299897] | PS1 selectivity |
| O=C1NCCCCC1N(Cc1ccc(Br)cc1)S(=O)(=O)c1ccc(Cl)cc1 (centres unmarked) [ELN318463] | PS1 selectivity |
